Columns and labels:
[1] = test system: bovine brain tubulin; assay: In vitro tubulin polymerization test (turbidimetry at 350 nm); type: biochemical; settings: molecules at 50 μM, calculated at t=3000 s, DMSO control = 100%
Procedure, shortened: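 Bovine brain tubulin was assembled at 37 °C in BRB80 (80 mM K-PIPES pH 6.8, 1 mM MgCl2, 1 mM EGTA) with 1 mM GTP. The 50 μM tests used compounds at 50 μM, run in triplicate. Turbidity at 350 nm was read at t=3000 s and expressed relative to control taken as 100%.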

[2] = In vivo toxicity in nude mice (weight, maximum tolerated oral dose); settings: 200 mg/kg per os twice weekly over 2 months, 63 days
Description: FIG. 14 presents the change in the weight of nude mice over 63 days. The mice received an administration of compound 6 (200 mg/kg) per os twice weekly over 2 months.
Compound 6 was dissolved at 8 mg/ml in a 60 mg/ml aqueous solution of beta-cyclodextrin (vehicle).
For the in vivo experiments, molecule 6 (8 mg/ml) was prepared in 60 mg/ml of β-cyclodextrin (Sigma #4805) dissolved in water and vortexed.
All the animal experiments were carried out according to the recommendations of the local ethics commmittee. Nude mice (NCr-nu/nu females (Harlan Laboratories), were housed in a room with filtered air at 22° C., alternating 12 hours of day and 12 hours of night.
The mice received compound 6 per os in doses and at intervals described in the captions to the figures. The control mice received the vehicle alone (identical volume of beta-cyclodextrin at 60 mg/ml))

[3] = test system: HeLa cells; assay: Indirect immunofluorescence: effect on HeLa cells (mitotic arrest, microtubule depolymerization); type: cell-based, human; parameters: key to Effect on Hela at 25 μM / Effect on Hela at 100 μM / Effect on Hela at 50 and 100 μM / Effect on Hela at 50 μM: —: −: no activity on the cells at 25 μM (if there is an effect at high concentrations, this is specified in the table).; *: weak activity (MA and/or slight depolymerization of the MTs and/or slight inhibition of proliferation),; **: average activity (MA and/or moderate depolymerization of the MTs and/or moderate inhibition of proliferation),; ***: strong activity (MA and/or pronounced depolymerization of the MTs and/or pronounced inhibition of proliferation),; ****: very strong activity (MA and/or very pronounced depolymerization of the MTs and/or strong inhibition of proliferation)
Procedure, shortened: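 HeLa cells exposed 24 h to compound (100 μM to 50 nM; primary series 1–10 μM), DMSO controls. PFA/glutaraldehyde-fixed cells immunostained for α-tubulin, actin (phalloidin) and DNA (Hoechst); fluorescence microscopy scored phenotypes and mitotic index, with mitotic index and/or MT depolymerization evaluated at 25 μM.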

[4] = test system: HMEC cells; assay: Proliferation of HMEC cells (GI50); type: cell-based; settings: Homo sapiens, 120 h, 50 μM to 1 nM for 5 days
Procedure, shortened: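 Cells seeded at 1,000/well (10% confluence) and exposed 5 days (120 h) to compound from 1 nM up to 50–100 μM. Live cells counted by Hoechst 33342 staining under fluorescence microscopy; GI50 is concentration halving proliferation versus control, mean of two triplicate experiments.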

For `COc1ccc(-c2[nH]c(=O)c3cc(OC)ccc3c2[N+](=O)[O-])cc1` [Compound 6, 7-methoxy-3-(4-methoxyphenyl)-4-nitroisoquinoline-1(2H)-one], the Tubulin polymerization inhibition [1] was “+ ((+) signifies that the molecule induces tubulin assembly inhibition in vitro comprised between 6 and 25% of the DMSO control.)”, the “effect on the weight of nude mice” value [2] was “no significant effect” and the “Effect on Hela at 25 μM” value ([3]; 25 μM, 24 hours, mitotic index and/or depolymerization of the MTs) was “****”. The “phenotype on microtubules and actin cytoskeleton, HeLa cells in interphase” value ([3]; 1 and 10 μM for 24 hours) was “depolymerization of the microtubules and a reorganization of the actin cytoskeleton”, the “phenotype on microtubules and actin cytoskeleton, HeLa cells in mitosis” value ([3]; 1 and 10 μM for 24 hours) was “depolymerization of the spindle microtubules and actin blebbing at the level of the cortex” and the GI50 [4] was ≤ 100 nM.
